{"source": "patent US20080292619A1", "about": "“Pharmaceutical Composition Containing Meltrin Antagonist” (MOCHIDA PHARMACEUTICAL CO., LTD., priority 2004, published 2008)", "note": "In the oligonucleotide strings, read from the 5' end, every base follows the letter of its sugar. An asterisk marks phosphorothioate; unmarked linkages are phosphodiester. Other units and linkages are bracketed, terminal groups are in braces. A string of capitals states the bases alone. d = 2'-deoxy (DNA)"}
{"tested_on": "human meltrin α RNA", "assay": "Suppression of human meltrin α expression by antisense compound in RD cell (real time PCR)", "type": "cell-based", "settings": "50 nM; RD cell; corrected by GAPDH", "method": "(§1) First, RD cell (ATCC) was suspended in DMEM containing 10% fetal bovine serum (FBS, SIGMA), and the suspension was inoculated in 6 well culture plate at 2.5×10^5 cells/well/2 mL. After incubating overnight at 37° C. in the presence of 5% CO2, the cells were washed twice with serum-free DMEM, and Opti-MEM medium (GIBCO) was added at 800 μL/well.\n(§2) Gene transfection reagent Lipofectin (Invitrogen) was diluted with Opti-MEM to 20 μg/mL, and the dilution was allowed to stand at room temperature for 30 minutes. Next, the antisense oligodeoxynucleotide synthesized as described above was heated at 90° C. for 3 minutes, and after quenching on ice, diluted with Opti-MEM to a concentration 10 times higher than the final concentration. Equal amounts of the Lipofectin in Opti-MEM and the antisense oligo DNA in Opti-MEM were mixed, and the mixture was incubated at room temperature for 15 minutes and added to 6 well plate at 200 μL/well.\n(§3) The culture was incubated at 37° C. for 4 hours in the presence of 5% CO2, and the culture supernatant containing the Lipofectin was removed. The cells were washed twice with serum-free DMEM, and after adding 1 mL/well of Opti-MEM and incubating for 18 hours at 37° C. in the presence of 5% CO2, the cells were subjected to the measurement of the level of expression of meltrin α RNA.\n(§4) After the washing, RNA was isolated from the cell by using RNA isolation kit (RNeasy Micro Kit, QIAGEN) according to the protocol of the kit, and RNA concentration was determined by measuring absorbance at a wavelength of 260 nm with a spectrophotometer (Nano prop, LMS Co., Ltd.) (1OD=40 μg/mL). After the quantitation, the RNA was prepared to a concentration of 0.1 μg/μL by using DEPC-treated water.\n(§5) 0.35 μg of the isolated RNA, and 3.5 μL of 10× TaqMan buffer, 7.7 μL of 25 mM MgCl2, 7.0 μL of 2.5 mM each dNTP Mix, 1.75 μL of 50 μM Random Hexamers, 0.7 μL of 20 U/μL RNase inhibitor, and 0.9 μL of 50 U/μL MultiScribe Reverse Transcriptase (all purchased from Applied Biosystems) were mixed, and water was added to make up the total volume to 35 μL. This solution was maintained at 25° C. for 10 minutes, at 48° C. for 30 minutes, and at 95° C. for 5 minutes, and reverse transcription was conducted to synthesize cDNA.\n(§6) A solution in total volume of 20 μL containing 10 μL of TaqMan Universal PCR Master Mix, 0.4 μL of 10 μM TaqMan MGB Probe (sequence 5′FAM-caccgaaggacaatccca-MGB-3′: Applied Biosystems), 0.1 μL of 50 μM Forward primer (sequence ggaagccgccagattcct) for detecting meltrin α, 0.1 μL of 50 μM Reverse primer (sequence […]) for detecting meltrin α (all purchased from Sigma-Genosys), 5 μL of the cDNA solution of (3), and 4.4 μL of water was prepared, and after maintaining the solution at 50° C. for 2 minutes and at 95° C. for 10 minutes, PCR was conducted by repeating 40 cycles of 95° C. for 15 seconds and 60° C. for 1 minute in ABI Prism 7000.\n(§7) The amount of the human meltrin α RNA was measured by conducting real time PCR by using the plasmid containing the cDNA coding for the human meltrin α for the template to generate the standard curve, and calculating RNA copy number of the meltrin α in each sample. The level of expression of GAPDH was also determined by using a primer and probe set for real time PCR of human GAPDH (Pre-Developed TaqMan Assay Reagents Human GAPDH (20×) (Cat# 4310884E, Applied Biosystems).\n(§8) The results of the real time PCR of the meltrin α was corrected by the level of expression of the GAPDH to calculate the suppression rate. […]"}
{"substance": "H145 + 5: ttgttctggccagaggatct (dT*dT*dG*dT*dT*dC*dT*dG*dG*dC*dC*dA*dG*dA*dG*dG*dA*dT*dC*dT; antisense)", "suppression rate of expression, 50 nM": "+++ (“+++” when the suppression rate was at least 70%)"}
{"substance": "H011: gcgaccggagggatttcctg (GCGACCGGAGGGATTTCCTG; antisense; DNA, all phosphorothioate, methylation of C not given here)", "suppression rate of expression, 50 nM": "+ (“+” when the suppression rate was at least 30%)"}
{"substance": "H150 + 10: atctgggcacttggtgtgga (dA*dT*dC*dT*dG*dG*dG*dC*dA*dC*dT*dT*dG*dG*dT*dG*dT*dG*dG*dA; antisense)", "suppression rate of expression, 50 nM": "++ (“++” when the suppression rate was at least 50%)"}
{"substance": "H004: ctggcacaagccagccttga (CTGGCACAAGCCAGCCTTGA; antisense; DNA, all phosphorothioate, methylation of C not given here)", "suppression rate of expression, 50 nM": "+ (“+” when the suppression rate was at least 30%)"}
{"substance": "H137 + 4: tggggctgagggacattcag (TGGGGCTGAGGGACATTCAG; antisense; DNA, all phosphorothioate, methylation of C not given here)", "suppression rate of expression, 50 nM": "++ (“++” when the suppression rate was at least 50%)"}
{"substance": "H139 + 19: gacgctaggtgcacgtgggg (GACGCTAGGTGCACGTGGGG; antisense; DNA, all phosphorothioate, methylation of C not given here)", "suppression rate of expression, 50 nM": "+ (“+” when the suppression rate was at least 30%)"}
{"substance": "H144 + 17: gccagaggatctgcaggcag (GCCAGAGGATCTGCAGGCAG; antisense; DNA, all phosphorothioate, methylation of C not given here)", "suppression rate of expression, 50 nM": "+++ (“+++” when the suppression rate was at least 70%)"}
{"substance": "H139 + 11: gtgcacgtggggcccggtgg (GTGCACGTGGGGCCCGGTGG; antisense; DNA, all phosphorothioate, methylation of C not given here)", "suppression rate of expression, 50 nM": "+ (“+” when the suppression rate was at least 30%)"}
{"substance": "H144 + 11: ggatctgcaggcagaggctt (GGATCTGCAGGCAGAGGCTT; antisense; DNA, all phosphorothioate, methylation of C not given here)", "suppression rate of expression, 50 nM": "++ (“++” when the suppression rate was at least 50%)"}
{"substance": "H150 + 5: ggcacttggtgtggatattg (dG*dG*dC*dA*dC*dT*dT*dG*dG*dT*dG*dT*dG*dG*dA*dT*dA*dT*dT*dG; antisense)", "suppression rate of expression, 50 nM": "+ (“+” when the suppression rate was at least 30%)"}
{"substance": "H148: cggagcccagtctcccattg (dC*dG*dG*dA*dG*dC*dC*dC*dA*dG*dT*dC*dT*dC*dC*dC*dA*dT*dT*dG; antisense)", "suppression rate of expression, 50 nM": "+ (“+” when the suppression rate was at least 30%)"}
{"substance": "H133 + 3: ttcggtgggtaggaatctgg (TTCGGTGGGTAGGAATCTGG; antisense; DNA, all phosphorothioate, methylation of C not given here)", "suppression rate of expression, 50 nM": "+ (“+” when the suppression rate was at least 30%)"}
{"substance": "H143: ttggcttacaggtcccctgg (TTGGCTTACAGGTCCCCTGG; antisense; DNA, all phosphorothioate, methylation of C not given here)", "suppression rate of expression, 50 nM": "+ (“+” when the suppression rate was at least 30%)"}
{"tested_on": "human meltrin α RNA", "assay": "Suppression of human meltrin α expression by antisense compound in RD cell (real time PCR)", "type": "cell-based", "settings": "200 nM; RD cell; corrected by GAPDH", "method": "as §1, §2, §3, §4, §5, §6, §7, §8"}
{"substance": "H011: gcgaccggagggatttcctg (GCGACCGGAGGGATTTCCTG; antisense; DNA, all phosphorothioate, methylation of C not given here)", "suppression rate of expression, 200 nM": "++ (“++” when the suppression rate was at least 50%)"}
{"substance": "H123: caggatggtcaccagaattc (CAGGATGGTCACCAGAATTC; antisense; DNA, all phosphorothioate, methylation of C not given here)", "suppression rate of expression, 200 nM": "+ (“+” when the suppression rate was at least 30%)"}
{"substance": "H197: tgctcagctccaagcagtat (dT*dG*dC*dT*dC*dA*dG*dC*dT*dC*dC*dA*dA*dG*dC*dA*dG*dT*dA*dT; antisense)", "suppression rate of expression, 200 nM": "++ (“++” when the suppression rate was at least 50%)"}
{"substance": "H159: actgacggcagtagctcaaa (dA*dC*dT*dG*dA*dC*dG*dG*dC*dA*dG*dT*dA*dG*dC*dT*dC*dA*dA*dA; antisense)", "suppression rate of expression, 200 nM": "++ (“++” when the suppression rate was at least 50%)"}
{"substance": "H071: ccatttgacagctacagccc (dC*dC*dA*dT*dT*dT*dG*dA*dC*dA*dG*dC*dT*dA*dC*dA*dG*dC*dC*dC; antisense)", "suppression rate of expression, 200 nM": "+ (“+” when the suppression rate was at least 30%)"}
{"substance": "H004: ctggcacaagccagccttga (CTGGCACAAGCCAGCCTTGA; antisense; DNA, all phosphorothioate, methylation of C not given here)", "suppression rate of expression, 200 nM": "+++ (“+++” when the suppression rate was at least 70%)"}
{"substance": "H221: gaaacatggctccctagtca (dG*dA*dA*dA*dC*dA*dT*dG*dG*dC*dT*dC*dC*dC*dT*dA*dG*dT*dC*dA; antisense)", "suppression rate of expression, 200 nM": "+ (“+” when the suppression rate was at least 30%)"}
{"substance": "H029: tggcaatgagaccttcattt (TGGCAATGAGACCTTCATTT; antisense; DNA, all phosphorothioate, methylation of C not given here)", "suppression rate of expression, 200 nM": "+ (“+” when the suppression rate was at least 30%)"}
{"substance": "H028: ctttccagatttatgatcag (CTTTCCAGATTTATGATCAG; antisense; DNA, all phosphorothioate, methylation of C not given here)", "suppression rate of expression, 200 nM": "+ (“+” when the suppression rate was at least 30%)"}
{"substance": "H014: ctcgggcccggcggcgagcg (CTCGGGCCCGGCGGCGAGCG; antisense; DNA, all phosphorothioate, methylation of C not given here)", "suppression rate of expression, 200 nM": "+++ (“+++” when the suppression rate was at least 70%)"}
{"substance": "H148: cggagcccagtctcccattg (dC*dG*dG*dA*dG*dC*dC*dC*dA*dG*dT*dC*dT*dC*dC*dC*dA*dT*dT*dG; antisense)", "suppression rate of expression, 200 nM": "++ (“++” when the suppression rate was at least 50%)"}
{"substance": "H249: aaaaagacaatgcccacgta (DNA dA*dA*dA*dA*dA*dG*dA*dC*dA*dA*dT*dG*dC*dC*dC*dA*dC*dG*dT*dA; antisense)", "suppression rate of expression, 200 nM": "++ (“++” when the suppression rate was at least 50%)"}
{"substance": "H233: agttttgttttctggaaggc (DNA dA*dG*dT*dT*dT*dT*dG*dT*dT*dT*dT*dC*dT*dG*dG*dA*dA*dG*dG*dC; antisense)", "suppression rate of expression, 200 nM": "+ (“+” when the suppression rate was at least 30%)"}
{"substance": "H077: ggcacacccccattcctttc (dG*dG*dC*dA*dC*dA*dC*dC*dC*dC*dC*dA*dT*dT*dC*dC*dT*dT*dT*dC)", "suppression rate of expression, 200 nM": "+ (“+” when the suppression rate was at least 30%)"}
{"substance": "H088: gagtccctgcacgctgttcc (dG*dA*dG*dT*dC*dC*dC*dT*dG*dC*dA*dC*dG*dC*dT*dG*dT*dT*dC*dC; antisense)", "suppression rate of expression, 200 nM": "+ (“+” when the suppression rate was at least 30%)"}
{"substance": "H143: ttggcttacaggtcccctgg (TTGGCTTACAGGTCCCCTGG; antisense; DNA, all phosphorothioate, methylation of C not given here)", "suppression rate of expression, 200 nM": "+++ (“+++” when the suppression rate was at least 70%)"}
{"substance": "H003: ccgttgcaataaatgagcaa (CCGTTGCAATAAATGAGCAA; antisense; DNA, all phosphorothioate, methylation of C not given here)", "suppression rate of expression, 200 nM": "+ (“+” when the suppression rate was at least 30%)"}
{"substance": "H020: tcacccctcgggcctcgcag (TCACCCCTCGGGCCTCGCAG; antisense; DNA, all phosphorothioate, methylation of C not given here)", "suppression rate of expression, 200 nM": "++ (“++” when the suppression rate was at least 50%)"}
{"substance": "H168: caagcaggatatttcaagtt (dC*dA*dA*dG*dC*dA*dG*dG*dA*dT*dA*dT*dT*dT*dC*dA*dA*dG*dT*dT; antisense)", "suppression rate of expression, 200 nM": "+ (“+” when the suppression rate was at least 30%)"}
